From article PMC12246421 (NPJ Precision Oncology, 2025)

Target: METTL21A (Methyltransferase 21A) (Homo sapiens, UniProt Q8WXB1)
Test: SPR
Format: binding

Chain of METTL21A (Methyltransferase 21A) (Q8WXB1 whole entry): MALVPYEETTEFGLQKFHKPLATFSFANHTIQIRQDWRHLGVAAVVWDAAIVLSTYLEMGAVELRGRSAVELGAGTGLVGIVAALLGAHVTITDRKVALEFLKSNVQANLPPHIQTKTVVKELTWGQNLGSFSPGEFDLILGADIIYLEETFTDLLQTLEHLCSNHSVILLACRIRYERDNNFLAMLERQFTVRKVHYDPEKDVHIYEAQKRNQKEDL

Kd: 122 µM
Compound: O=c1c(-c2ccc(O[C@@H]3O[C@H](CO)[C@@H](O)[C@H](O)[C@H]3O)cc2)coc2cc(O)cc(O)c12 [Sop, sophoricoside]
